From patent publication US20020013300A1, “Methods for improving size and appearance of a wound” (Avocet Polymer Technologies, Inc., priority 2000, published 2002)

What was measured:
Format in all cases: in vivo, human patient
hypertrophic scar [1] = experiment: Example 3, Patient 25: treatment of an irritated hypertrophic forearm scar
Protocol: The patient's chief complaint was an irritated scar of the forearm for more than two years. The patient underwent a medical history and physical examination. On examination, a raised irregularly contoured errythematous hypertrophic scar was observed. Materials and Methods: After review of clinical options, the patient was prescribed nabumetone for 4 weeks. […] The combination of nabumetone and hydrogel was used for 15-18 hours each day for a period of 8 weeks. Clinical progress was followed using photographic imaging as well as patient self-report.

hypertrophic scar [2] = experiment: Example 2, Patient three: treatment of a tender hypertrophic facial scar; details: 7 weeks
From the text: The patient's chief complaint was irritation with daily grooming and itching from scars located on the face. The patient underwent a medical history and physical examination. […] Clinical progress was followed using photographic and ultrasound imaging as well as a patient self-report. […] Color changes were documented by photographs. Ultrasound images documented the scar size change.

post-operative scar = experiment: Example 4, Patient two: treatment of a raised post-operative leg scar
Protocol: The patient's chief complaint was difficulty sleeping or resting because of a post-operative orthopoedic right leg scar that was irritated and raised. The patient underwent a medical history and physical examination. Notable medication use was a 325 mg tablet of acetylsalicylic acid orally administered to prevent thrombo-embolic post-operative complications. On examination, a 15 cm raised erythematous post-operative scar of 15 cm length and approximately 3 mm width was noted, with exquisite sensitivity to examination and evidence of excoriation. At the time of exam, the patient denied itching. […] To avoid the use of adhesives, an ace wrap bandage was used to hold the gel—salicylic acid combination in place. Gel plus salicylic acid co-administration was monitored by a daily patient diary. Photographs and patient self report were used to assess treatment results. Itching complaints were followed using a 10 point itching scale. Pre-treatment itching scale was entered as 0, reflecting onset of aspirin use prior therapy. RESULTS: Compliance with treatment regimen was documented daily. […] Itching symptoms were reported at 0.

[3] = test system: post-operative caesarean section scar; experiment: Example 5, Patient one: treatment of an itchy caesarean section scar
From the text: The patient's chief complaint was a burning itchy sensation in a closed post-operative caesarean section scar. The patient underwent a medical history and physical examination. On examination, an 18 cm irritated lower abdominal vertical healed incision was noted, with evidence of excoriation. […] To avoid the use of adhesives, a control top stretch panty was used to hold the gel—salicylic acid combination in place. Gel plus salicylic acid co-administration was monitored by a daily patient diary. Photographs and patient self report were followed to assess treatment results. Itching complaints were followed using a 10 point itching scale. Pre-treatment itching scale was entered as 6, with the comment that itching bothered the patient “severely, badly.” RESULTS: Compliance with treatment regimen was documented daily. […] On examination, the scar contours appeared to have become more regular and scar color faded.

[4] = nabumetone, then nabumetone + hydrogel 8 weeks
[5] = 2% salicylic acid under hydrogel, 12 weeks
[6] = 2% salicylic acid under hydrogel

## COc1ccc2cc(CCC(C)=O)ccc2c1 [nabumetone, 4-(6-methoxy-2-naphthalenyl)-2-butanone]
Hypertrophic scar [1]; [4]
  irregular contours: faded
  patient self-report: improved comfort
  scar color on examination: reverted in color to skin tones closely matching adjacent skin
Hypertrophic scar [1]; oral nabumetone 250 mg daily 4 weeks, then with AVOGEL hydrogel sheeting 15-18 h/day for 8 weeks
  scar height on examination: became flatter
Hypertrophic scar [1]; treatment day 60
  scar visibility on photographic documentation: not observable
Hypertrophic scar [2]; nabumetone + hydrogel
  patient self-report: improved comfort
  redness and tenderness on exam: less redness and tenderness
  scar color (photographs): revert to a color tone more closely matching adjacent skin
Hypertrophic scar [2]; oral nabumetone 250-500 mg daily co-administered with AVOGEL hydrogel sheeting 15-18 h/day
  reduction in scar size (examination, ultrasound): 50%

## O=C(O)c1ccccc1O [salicylic acid]
post-operative scar; 2% salicylic acid topically under AVOGEL hydrogel 15-18 h/day, 12 weeks, patient also on oral acetylsalicylic acid 325 mg
  shortened measure of the scar, scar contracture (photographs): 25%
post-operative scar; [5]
  evidence of itching or irritation on examination: No evidence of itching or irritation
  patient report: improved sleep with reduction in scar irritation
  scar color on examination: lighter than in pre-treatment
  scar contours on examination: flattened
post-operative scar; 10 point scale, pre-treatment entered as 0 (aspirin use prior to therapy)
  itching symptoms (itching scale): 0
[3]; 2% salicylic acid topically under AVOGEL hydrogel 15-18 h/day, 12 weeks
  redness and local irritation at scar site (photographs): reduced redness and local irritation
[3]; [6]
  evidence of itching or irritation on examination: No evidence of itching or irritation
  scar color on examination: faded
  scar contours on examination: more regular
[3]; 10 point scale, 4th week of treatment, pre-treatment 6
  itching symptoms (itching scale): 3
[3]; end of treatment after 20 weeks
  scar irritation and pruritis: reduced to infrequent
